# Source: patent US11814680B2, “Biomarkers for detecting senescent cells” (Universität für Bodenkultur Wien, priority 2017, dated 2023)
# Entries after “also recorded” stand apart in the source; their conditions may differ. Marks after values point to notes of the source that are not given here.
# Assays:
# Format in all cases: in vivo, mouse
# p16-3MR mice [1] = test: Next generation sequencing of circulating miRNAs in serum after induction (dox) and removal (GCV) of senescent cells; details: for log fold change: p16-3MR mice; for avg TPM dox: dox-treated p16-3MR mice
# Experimental: p16-3MR (Demaria et al, 2014, Developmental Cell 31:722-733) mice were bred in house and maintained in the AALAC-accredited Buck Institute for Research on Aging (Novato, Calif.) animal facility. 10 to 12-week-old p16-3MR male mice were used for experiments. Mice were divided in 4 groups and each group consisted of 3 animals. In group A, control mice were injected with PBS. In group B, mice were treated with Ganciclovir (GCV) (Sigma-Aldrich) dissolved in PBS for 5 consecutive days. In group C, mice were treated with one dose of Doxorubicine hydrochloride (Sigma-Aldrich) dissolved in PBS. In group D, mice were first treated with Doxorubicine and then treated 10 days later with GCV. Mice were intraperitoneally injected with one dose of 10 mg/kg of Doxorubicine hydrochloride, and GCV was administered daily by intraperitoneal injections for 5 consecutive days at concentration of 25 mg/kg in PBS. 4 days after the last GCV dose, animals were euthanized with CO2 and blood was withdrawn immediately. Blood was then incubated for 30 min at room temperature and centrifuged at 3400×g for 10 min. Serum was carefully collected in a sterile tube without disturbing the cell pellet and stored at −80° C. for further experiments.
# Total RNA extraction was performed from 200 μl of serum using the Qiagen miRNeasy™ extraction kit (Qiagen, Germany). RNA yield was quality checked for homogenous extraction efficiency and hemolysis on the basis qPCR amplification of spiked-in as well as hemolysis-responsive RNAs (Blondal et al). In total 2 μl total RNA were used for library preparation using the CleanTag library preparation protocol (Trilink Biotechnologies, USA), which uses chemically modified adapters to prevent adapter self-ligation. Library quality and yield was controlled using Bioanalyzer DNA-1000 chips. Due to the high purity, libraries were not purified prior to sequencing on an ILLUMINA™ NextSeq 500 sequencing system with 50 bp single-end reads.
# Next-generation sequencing was performed at Exiqon (Denmark). Raw reads were quality filtered for a Q-score of 30 or higher. Adapter sequences were trimmed and the remaining reads were mapped against the mouse genome, miRBase, non-coding RNA databases and classified as either microRNAs, small RNAs, genome mapping RNAs or outmapped RNA sequences. Read counts were added for all microRNA isoforms (isomiRs) and normalized by dividing the microRNA read count by the total number of mapped reads and multiplying by 1 million (Tags Per Million). Tags per millions were used for data mining (PCA and hierarchical clustering) using the web-tool clustvis (Metsalu and Vilo 2015).
# For differential expression analysis, the EdgeR statistical software package was used. For normalization, the trimmed mean of M-values method was used based on log-fold and absolute gene wise changes in expression levels between samples (TMM normalization). […] Additionally, the normalization step offsets under-sampling effects (due to highly expressed microRNAs dominating the read set) by identifying scaling factors that minimize log-fold changes between samples across the majority of microRNAs.
# For exploratory data analysis we applied principal component analysis (PCA) to the dataset of 50 most variable microRNAs according to the coefficient of variation. The PCA plot clearly indicates an effect of […] (dox) treatment on circulating microRNA levels in p16-3MR mice compared to the PBS treated control animals (FIG. 2). […] Analysis of differentially circulating miRNAs was focused on changes between dox treated versus control (PBS) to identify those miRNAs that are modulated by induction of senescence, as well as dox-GCV vs dox, in order to identify miRNAs that change after removal of senescent cells. A p-value threshold of <0.05 without correction for multiple testing was used. […] GCV-treated animals are supposed to have a reduced number of senescent cells compared to PBS due to forced apoptosis. […]
# p16-3MR mice [2] = test: RT-qPCR verification of serum circulating microRNA changes, one-way ANOVA; details: for One-way ANOVA Senolytic Treatment (DOX/GCV) / One-way ANOVA Senescence (DOX vs PBS): serum; for One-way ANOVA Senolytic Treatment (DOX/GCV): DOX/GCV compared to DOX; for One-way ANOVA Senescence (DOX vs PBS): n=8 per group, male and female mice
# Experimental: p16-3MR (Demaria et al, 2014, Developmental Cell 31:722-733) mice were bred in house and maintained in the AALAC-accredited Buck Institute for Research on Aging (Novato, Calif.) animal facility. 10 to 12-week-old p16-3MR […] mice were used for experiments. Mice were divided in 4 groups and each group consisted of 8 animals, 5 female, and 3 male, respectively. In group A, control mice were injected with PBS. In group B, mice were treated with Ganciclovir (GCV) (Sigma-Aldrich) dissolved in PBS for 5 consecutive days. In group C, mice were treated with one dose of Doxorubicine hydrochloride (Sigma-Aldrich) dissolved in PBS. In group D, mice were first treated with Doxorubicine and then treated 10 days later with GCV. Mice were intraperitoneally injected with one dose of 10 mg/kg of Doxorubicine hydrochloride, and GCV was administered daily by intraperitoneal injections for 5 consecutive days at concentration of 25 mg/kg in PBS. 4 days after the last GCV dose, animals were euthanized with CO2 and blood was withdrawn immediately. Blood was then incubated for 30 min at room temperature and centrifuged at 3400×g for 10 min. Serum was carefully collected in a sterile tube without disturbing the cell pellet and stored at −80° C. for further experiments.
# Total RNA extraction was performed from 200 μl of serum using the Qiagen miRNeasy extraction kit (Qiagen, Germany). RNA yield was quality checked for homogenous extraction efficiency and hemolysis on the basis qPCR amplification of spiked-in as well as hemolysis-responsive RNAs (Blondal et al). In total 2 μl total RNA were used for reverse transcription using the Exiqon Universal RT kit II (Exiqon, Denmark). The obtained cDNA samples were pre-diluted 1:40 and subsequently mixed with SYBR Green® Mix (Exiqon, Denmark) to achieve a 1:100 dilution. The mix was distributed to primer-coated 384-well plates containing dried primer pairs for 96 selected microRNA or quality control assays. QPCR amplification was performed on a Roche LightCycler 480 II, using the manufacturer's recommendation for annealing, extension and denaturation.
# Raw Cq-values were computed using the 2nd derivative method. Melting curves were checked for peaks to ensure specificity of the amplification reactions. Cq-values were subsequently normalized using Spike-In controls as references, to reduce technical noise in the data.
# (§1) Statistical analysis was performed using Medcalc (version 18.2.1). Normal distribution was assessed using D'Agostino-Pearson test, where normality was accepted at p>0.05. One-way ANOVA together together with Student-Newman-Keuls test for all pairwise comparisons (post-hoc tests) was used to identify significant changes between groups (p<0.05). To assess the discriminatory power of individual microRNAs, receiver operating characteristic (ROC) analysis was applied. ROC curves were plotted using sensitivity (y-axis) and 1-specificity (x-axis) and the area under the ROC curve (AUC) was calculated. MicroRNAs with AUC-values of >0.7 were considered as good discriminators/biomarkers. MicroRNAs with AUC-values >0.8 were considered very good discriminators/biomarkers.
# p16-3MR mice [3] = test: ROC analysis of discriminatory power of circulating microRNAs; details: serum, RT-qPCR, symbol after the number = significance; for ROC Analysis AUC Senescence: DOX vs PBS; for ROC Analysis AUC Senolytic Treatment: DOX/GCV vs DOX
# Experimental: as §1
# In order to assess the diagnostic power of circulating microRNAs for the exposure with senescence inducing substances (DOX) as well as the efficacy of senolytic treatment, ROC analysis was performed and the area-under-the-curve (AUC) was calculated. […] Table 23 below summarizes AUC values as well as 95% confidence intervals for 24 selected circulating microRNAs.
compound,measurement,setting,value
"mmu-miR-144-5p: circulating microRNA, SEQ ID No. 7 (GGAUAUCAUCAUAUACUGUAAG; expressed or natural sequence; listed as Homo sapiens)",log fold change,"p16-3MR mice [1]; serum miRNA, NGS, dox vs pbs",−1.06
same,avg TPM dox,"p16-3MR mice [1]; serum miRNA, NGS",34.50 TPM
"Nc1nc(O)c2ncn(COC(CO)CO)c2n1 [ganciclovir, Ganciclovir, reference compound]",serum miRNAs compared to PBS treated animals,"p16-3MR mice [1]; GCV 25 mg/kg i.p. for 5 days, in words",consistent decrease
"miR-27a-3p: circulating microRNA biomarker, SEQ ID No. 5 (UUCACAGUGGCUAAGUUCCGC; expressed or natural sequence; listed as Homo sapiens)",serum level after rescue with dox+GCV (removal of senescent cells),"p16-3MR mice [1]; NGS, in words",decreased
same,serum level in dox-treated animals compared to PBS controls,"p16-3MR mice [1]; NGS, in words",higher; also recorded: increased
same,log fold change,"p16-3MR mice [1]; serum miRNA, NGS, dox vs pbs",1.08
same,avg TPM dox,"p16-3MR mice [1]; serum miRNA, NGS",16.50 TPM
same,change of serum level following senolytic treatment (DOX/GCV compared to DOX),"p16-3MR mice [2]; p<0.05, in words",significantly changed
same,One-way ANOVA Senolytic Treatment (DOX/GCV),p16-3MR mice [2],* (significant p < 0.05)
same,One-way ANOVA Senescence (DOX vs PBS),p16-3MR mice [2],○
same,ROC Analysis AUC Senescence,p16-3MR mice [3],0.664°
same,ROC Analysis AUC Senolytic Treatment,p16-3MR mice [3],0.719+
"mmu-let-7f-5p: circulating microRNA, SEQ ID No. 2 (UGAGGUAGUAGAUUGUAUAGUU; expressed or natural sequence; listed as Homo sapiens)",log fold change,"p16-3MR mice [1]; serum miRNA, NGS, dox vs pbs",−1.29
same,avg TPM dox,"p16-3MR mice [1]; serum miRNA, NGS",178.25 TPM
"mmu-miR-143-3p: circulating microRNA, SEQ ID No. 4 (UGAGAUGAAGCACUGUAGCUC; expressed or natural sequence; listed as Homo sapiens)",log fold change,"p16-3MR mice [1]; serum miRNA, NGS, dox vs pbs",−1.57
same,avg TPM dox,"p16-3MR mice [1]; serum miRNA, NGS",393.00 TPM
"COc1cccc2c1C(=O)c1c(O)c3c(c(O)c1C2=O)C[C@@](O)(C(=O)CO)C[C@@H]3O[C@H]1C[C@H](N)[C@H](O)[C@H](C)O1.Cl [Doxorubicine hydrochloride, reference compound]",circulating miRNA levels upon induction of senescence,"p16-3MR mice [1]; PCA of 50 most variable microRNAs, compared to PBS, in words",significantly changed
"miR-34a-5p: circulating microRNA biomarker, SEQ ID No. 1 (UGGCAGUGUCUUAGCUGGUUGU; expressed or natural sequence; listed as Homo sapiens)",serum level after rescue with dox+GCV (removal of senescent cells),"p16-3MR mice [1]; NGS, in words",decreased
same,serum level in dox-treated animals compared to PBS controls,"p16-3MR mice [1]; NGS, in words",higher; also recorded: increased
same,serum level after rescue with dox+GCV (removal of senescent cells),"p16-3MR mice [1]; NGS, in words, listed as miR-34a",significant decline
same,avg TPM GCV,"p16-3MR mice [1]; serum miRNA, NGS, comparison group of Table 17, printed GCV",8.00 TPM
same,avg TPM dox + GCV,"p16-3MR mice [1]; serum miRNA, NGS, dox + GCV treated p16-3MR mice",2.33 TPM
same,log fold change,"p16-3MR mice [1]; serum miRNA, NGS, dox + gcv vs gcv (so in the source)",−1.34
same,log fold change,"p16-3MR mice [1]; serum miRNA, NGS, dox vs pbs",1.13
same,avg TPM dox,"p16-3MR mice [1]; serum miRNA, NGS",8.00 TPM
same,regulation in serum after exposure to DOX compared to PBS,"p16-3MR mice [2]; independent of gender, in words",significantly (up- or down-regulated)
same,One-way ANOVA Senolytic Treatment (DOX/GCV),p16-3MR mice [2],○
same,One-way ANOVA Senescence (DOX vs PBS),p16-3MR mice [2],* (significant p < 0.05)
same,ROC Analysis AUC Senescence,p16-3MR mice [3],1.000*
same,ROC Analysis AUC Senolytic Treatment,p16-3MR mice [3],0.672°
